Source: a compilation of properties of binary mixtures (doi:10.1016/j.jct.2020.106330)

Assay: xn = mol fraction of the nth substance listed
Settings: 101.3 kPa

CCCC[n+]1ccn(C)c1.F[P-](F)(F)(F)(F)F + CN1CCCC1=O
speed of sound [m/s]
Settings	303.15 K	308.15 K	313.15 K	318.15 K	323.15 K
x1 = 0.0513	1522.2	1503.9	1485.8	–	1450.1
x1 = 0.1028	1516.1	1498.8	1481.6	1464.5	1447.6
x1 = 0.1422	1510	1493.2	1476.6	1460.1	1443.8
x1 = 0.1894	–	1486	1470	1454.1	1438.4
x1 = 0.2988	–	1470.9	1456	1441.3	1426.7
x1 = 0.499	1460.7	1447.2	1433.9	–	1407.6
x1 = 0.591	–	1438.8	1425.9	–	1400.6
x1 = 0.6991	–	–	1419.4	1407.1	–
x1 = 0.812	1437.9	1425.8	1413.8	1402	1390.3
x1 = 0.8415	1436.6	1424.5	1412.6	1400.9	1389.3
x1 = 0.8812	1434.9	–	1411.2	1399.6	1388.1
x1 = 0.9423	1432.9	1421.1	–	1398	–
x1 = 1	–	1419.8	1408.2	1396.8	1385.6

CN1CCCC1=O + CCCC[n+]1ccn(C)c1.F[P-](F)(F)(F)(F)F
x2 = 0
Settings	speed of sound [m/s]
308.15 K	1505
313.15 K	1485.7
318.15 K	1466.7
323.15 K	1447.8
